From patent US11427549B2, “Pyrimidinyloxy benzo-fused compounds as herbicides” (FMC Corporation, priority 2017, dated 2022)

Experiments:
rice (Oryza sativa) = test: Test B flooded paddy test, rice; conditions: Oryza sativa, read-out: Plant response rating, Rice (0 to 100 scale, 0 is no effect, 100 is complete control)
kochia (Kochia scoparia) [1] = test: Test A preemergence, kochia; type: in vivo; conditions: Bassia scoparia, pre-emergence, 240 h, 0 to 100 scale (0 no effect, 100 complete control), read-out: Plant response rating, Kochia; for pest or weed control at 31 g/ha: 31 g ai/ha; for pest or weed control at 125 g/ha: 125 g ai/ha
kochia (Kochia scoparia) [2] = test: Test A postemergence, kochia; type: in vivo; conditions: Bassia scoparia, post-emergence, 240 h, 0 to 100 scale (0 no effect, 100 complete control), read-out: Plant response rating, Kochia; for pest or weed control at 31 g/ha: 31 g ai/ha; for pest or weed control at 125 g/ha: 125 g ai/ha
[3] = system: blackgrass (Alopecurus myosuroides); test: Test A postemergence, blackgrass; type: in vivo; conditions: Alopecurus myosuroides, post-emergence, 240 h, 0 to 100 scale (0 no effect, 100 complete control), read-out: Plant response rating, Blackgrass; for pest or weed control at 31 g/ha: 31 g ai/ha; for pest or weed control at 125 g/ha: 125 g ai/ha
[4] = system: ducksalad (Heteranthera limosa); test: Test B flooded paddy test, ducksalad; conditions: Heteranthera limosa, read-out: Plant response rating, Ducksalad (0 to 100 scale, 0 is no effect, 100 is complete control)
[5] = system: barnyardgrass (Echinochloa crus-galli); test: Test A postemergence, barnyardgrass; type: in vivo; conditions: Echinochloa crus-galli, post-emergence, 240 h, 0 to 100 scale (0 no effect, 100 complete control), read-out: Plant response rating, Barnyardgrass; for pest or weed control at 31 g/ha: 31 g ai/ha; for pest or weed control at 125 g/ha: 125 g ai/ha
[6] = system: ryegrass, Italian (Italian ryegrass, Lolium multiflorum); test: Test A preemergence, ryegrass, Italian; type: in vivo; conditions: Lolium multiflorum, pre-emergence, 240 h, 0 to 100 scale (0 no effect, 100 complete control), read-out: Plant response rating, Ryegrass, Italian; for pest or weed control at 31 g/ha: 31 g ai/ha; for pest or weed control at 125 g/ha: 125 g ai/ha
[7] = system: wheat (Triticum aestivum); test: Test A postemergence, wheat; type: in vivo; conditions: Triticum aestivum, post-emergence, 240 h, 0 to 100 scale (0 no effect, 100 complete control), read-out: Plant response rating, Wheat; for plant injury at 31 g/ha: 31 g ai/ha; for plant injury at 125 g/ha: 125 g ai/ha
corn (Zea mays) = test: Test A postemergence, corn; type: in vivo; conditions: Zea mays, post-emergence, 240 h, 0 to 100 scale (0 no effect, 100 complete control); for Corn plant response rating (crop injury, 0 = no effect, 100 = complete kill) at 31 g/ha: 31 g ai/ha; for Corn plant response rating (crop injury, 0 = no effect, 100 = complete kill) at 125 g/ha: 125 g ai/ha
[8] = system: pigweed (Amaranthus retroflexus); test: Test A preemergence, pigweed; type: in vivo; conditions: Amaranthus retroflexus, pre-emergence, 240 h, 0 to 100 scale (0 no effect, 100 complete control), read-out: Plant response rating, Pigweed; for pest or weed control at 31 g/ha: 31 g ai/ha; for pest or weed control at 125 g/ha: 125 g ai/ha
[9] = system: galium (catchweed bedstraw, Galium aparine); test: Test A postemergence, galium; type: in vivo; conditions: Galium, post-emergence, 240 h, 0 to 100 scale (0 no effect, 100 complete control), read-out: Plant response rating, Galium; for pest or weed control at 31 g/ha: 31 g ai/ha; for pest or weed control at 125 g/ha: 125 g ai/ha
[10] = system: barnyardgrass (Echinochloa crus-galli); test: Test A preemergence, barnyardgrass; type: in vivo; conditions: Echinochloa crus-galli, pre-emergence, 240 h, 0 to 100 scale (0 no effect, 100 complete control), read-out: Plant response rating, Barnyardgrass; for pest or weed control at 31 g/ha: 31 g ai/ha; for pest or weed control at 125 g/ha: 125 g ai/ha
[11] = system: foxtail, green (green foxtail, Setaria viridis); test: Test A postemergence, foxtail, green; type: in vivo; conditions: Setaria, post-emergence, 240 h, 0 to 100 scale (0 no effect, 100 complete control), read-out: Plant response rating, Foxtail, Green; for pest or weed control at 31 g/ha: 31 g ai/ha; for pest or weed control at 125 g/ha: 125 g ai/ha
[12] = system: ragweed (common ragweed, Ambrosia elatior); test: Test A postemergence, ragweed; type: in vivo; conditions: Ambrosia artemisiifolia, post-emergence, 240 h, 0 to 100 scale (0 no effect, 100 complete control), read-out: Plant response rating, Ragweed; for pest or weed control at 31 g/ha: 31 g ai/ha; for pest or weed control at 125 g/ha: 125 g ai/ha
[13] = system: pigweed (Amaranthus retroflexus); test: Test A postemergence, pigweed; type: in vivo; conditions: Amaranthus retroflexus, post-emergence, 240 h, 0 to 100 scale (0 no effect, 100 complete control), read-out: Plant response rating, Pigweed; for pest or weed control at 31 g/ha: 31 g ai/ha; for pest or weed control at 125 g/ha: 125 g ai/ha
[14] = system: barnyardgrass (Echinochloa crus-galli); test: Test B flooded paddy test, barnyardgrass; conditions: Echinochloa crus-galli, read-out: Plant response rating, Barnyardgrass (0 to 100 scale, 0 is no effect, 100 is complete control)
[15] = system: ragweed (common ragweed, Ambrosia elatior); test: Test A preemergence, ragweed; type: in vivo; conditions: Ambrosia artemisiifolia, pre-emergence, 240 h, 0 to 100 scale (0 no effect, 100 complete control), read-out: Plant response rating, Ragweed; for pest or weed control at 31 g/ha: 31 g ai/ha; for pest or weed control at 125 g/ha: 125 g ai/ha
[16] = system: ryegrass, Italian (Italian ryegrass, Lolium multiflorum); test: Test A postemergence, ryegrass, Italian; type: in vivo; conditions: Lolium multiflorum, post-emergence, 240 h, 0 to 100 scale (0 no effect, 100 complete control), read-out: Plant response rating, Ryegrass, Italian; for pest or weed control at 31 g/ha: 31 g ai/ha; for pest or weed control at 125 g/ha: 125 g ai/ha

CN1C(=O)c2cccc(Oc3ncc(Cl)cn3)c2C1CCCC(F)(F)F (stereo not drawn) [Compound 12, 4-[(5-Chloro-2-pyrimidinyl)oxy]-2,3-dihydro-2-methyl-3-(4,4,4-trifluorobutyl)-1H-isoindol-1-one]
plant injury at 250 g/ha (rice (Oryza sativa)): 0%
pest or weed control at 31 g/ha (kochia (Kochia scoparia) [1]): 0%
pest or weed control at 125 g/ha (kochia (Kochia scoparia) [1]): 0%
pest or weed control at 31 g/ha (kochia (Kochia scoparia) [2]): 0%
pest or weed control at 125 g/ha (kochia (Kochia scoparia) [2]): 10%
pest or weed control at 31 g/ha [3]: 0%
pest or weed control at 125 g/ha [3]: 0%
pest or weed control at 250 g/ha [4]: 0%
pest or weed control at 31 g/ha [5]: 0%
pest or weed control at 125 g/ha [5]: 0%
pest or weed control at 31 g/ha [6]: 0%
pest or weed control at 125 g/ha [6]: 0%
plant injury at 31 g/ha [7]: 0%
plant injury at 125 g/ha [7]: 0%
Corn plant response rating (crop injury, 0 = no effect, 100 = complete kill) at 31 g/ha (corn (Zea mays)): 0%
Corn plant response rating (crop injury, 0 = no effect, 100 = complete kill) at 125 g/ha (corn (Zea mays)): 10%
pest or weed control at 31 g/ha [8]: 0%
pest or weed control at 125 g/ha [8]: 0%
pest or weed control at 31 g/ha [9]: 0%
pest or weed control at 125 g/ha [9]: 10%
pest or weed control at 31 g/ha [10]: 0%
pest or weed control at 125 g/ha [10]: 0%
pest or weed control at 31 g/ha [11]: 0%
pest or weed control at 125 g/ha [11]: 10%
pest or weed control at 31 g/ha [12]: 0%
pest or weed control at 125 g/ha [12]: 20%
pest or weed control at 31 g/ha [13]: 0%
pest or weed control at 125 g/ha [13]: 30%
pest or weed control at 250 g/ha [14]: 0%
pest or weed control at 31 g/ha [15]: 0%
pest or weed control at 125 g/ha [15]: 0%
pest or weed control at 31 g/ha [16]: 0%
pest or weed control at 125 g/ha [16]: 0%

O=C1NC(CCCC(F)(F)F)c2c(Oc3ncc(Cl)cn3)cccc21 (stereo not drawn) [Compound 13, 4-[(5-Chloro-2-pyrimidinyl)oxy]-2,3-dihydro-3-(4,4,4-trifluorobutyl)-1H-isoindol-1-one]
plant injury at 250 g/ha (rice (Oryza sativa)): 0%
pest or weed control at 31 g/ha (kochia (Kochia scoparia) [1]): 0%
pest or weed control at 125 g/ha (kochia (Kochia scoparia) [1]): 0%
pest or weed control at 31 g/ha (kochia (Kochia scoparia) [2]): 0%
pest or weed control at 125 g/ha (kochia (Kochia scoparia) [2]): 0%
pest or weed control at 31 g/ha [3]: 0%
pest or weed control at 125 g/ha [3]: 0%
pest or weed control at 250 g/ha [4]: 0%
pest or weed control at 31 g/ha [5]: 0%
pest or weed control at 125 g/ha [5]: 0%
pest or weed control at 31 g/ha [6]: 0%
pest or weed control at 125 g/ha [6]: 0%
plant injury at 31 g/ha [7]: 0%
plant injury at 125 g/ha [7]: 0%
Corn plant response rating (crop injury, 0 = no effect, 100 = complete kill) at 31 g/ha (corn (Zea mays)): 0%
Corn plant response rating (crop injury, 0 = no effect, 100 = complete kill) at 125 g/ha (corn (Zea mays)): 0%
pest or weed control at 31 g/ha [8]: 0%
pest or weed control at 125 g/ha [8]: 0%
pest or weed control at 31 g/ha [9]: 0%
pest or weed control at 125 g/ha [9]: 0%
pest or weed control at 31 g/ha [10]: 0%
pest or weed control at 125 g/ha [10]: 0%
pest or weed control at 31 g/ha [11]: 0%
pest or weed control at 125 g/ha [11]: 0%
pest or weed control at 31 g/ha [12]: 0%
pest or weed control at 125 g/ha [12]: 0%
pest or weed control at 31 g/ha [13]: 0%
pest or weed control at 125 g/ha [13]: 10%
pest or weed control at 250 g/ha [14]: 0%
pest or weed control at 31 g/ha [15]: 0%
pest or weed control at 125 g/ha [15]: 0%
pest or weed control at 31 g/ha [16]: 0%
pest or weed control at 125 g/ha [16]: 0%
